Here are results for 13 compounds from patent US8193191B2, “Urotensin II receptor antagonists” (Janssen Pharmaceutica N.V., priority 2006, dated 2012).

The target in test [1] is T1, rat GPR14 (U-II receptor) (Rattus norvegicus, UniProt P49684).
T1 construct: expressed in transfected cells
T1 sequence (P49684 1-386): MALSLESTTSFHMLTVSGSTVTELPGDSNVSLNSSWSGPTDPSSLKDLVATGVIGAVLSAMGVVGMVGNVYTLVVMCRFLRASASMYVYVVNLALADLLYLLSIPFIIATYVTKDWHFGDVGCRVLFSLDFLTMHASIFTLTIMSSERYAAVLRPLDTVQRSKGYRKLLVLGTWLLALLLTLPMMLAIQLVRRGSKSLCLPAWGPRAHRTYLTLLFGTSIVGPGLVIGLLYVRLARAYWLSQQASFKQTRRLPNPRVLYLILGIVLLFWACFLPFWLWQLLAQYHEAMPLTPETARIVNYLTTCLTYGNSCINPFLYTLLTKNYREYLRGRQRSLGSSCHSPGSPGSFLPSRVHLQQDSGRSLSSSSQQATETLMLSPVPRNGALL
In words: Rat UII Calcium Mobilization FLIPR Assay. In kind it is cell-based. As to conditions: average value for the compound tested; read-out: Rat UII FLIPR Average IC50. A digest of the protocol: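 Fluorescent calcium signals were recorded at room temperature (23° C) by FLIPR. Stable rat U-II receptor CHO lines had been dye-loaded for 1 h at 37° C in pH 7.4 HBSS containing 20 mM HEPES, 0.1% BSA and 2.5 mM probenecid.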
On the technique in general: A change in cytosolic calcium serves as a functional read-out for many receptors and channels.

For test [2], the target named is T2, Human UII receptor, 6D9 human rhabdomyosarcoma cells (Homo sapiens, UniProt Q9UKP6).
T2 construct: 6D9: isolated by dilution subcloning of RMS13 cells, ATCC® Number: CRL-2061; host or cells: 6D9 human rhabdomyosarcoma cells (subclone of RMS13)
T2 sequence (Q9UKP6 1-389): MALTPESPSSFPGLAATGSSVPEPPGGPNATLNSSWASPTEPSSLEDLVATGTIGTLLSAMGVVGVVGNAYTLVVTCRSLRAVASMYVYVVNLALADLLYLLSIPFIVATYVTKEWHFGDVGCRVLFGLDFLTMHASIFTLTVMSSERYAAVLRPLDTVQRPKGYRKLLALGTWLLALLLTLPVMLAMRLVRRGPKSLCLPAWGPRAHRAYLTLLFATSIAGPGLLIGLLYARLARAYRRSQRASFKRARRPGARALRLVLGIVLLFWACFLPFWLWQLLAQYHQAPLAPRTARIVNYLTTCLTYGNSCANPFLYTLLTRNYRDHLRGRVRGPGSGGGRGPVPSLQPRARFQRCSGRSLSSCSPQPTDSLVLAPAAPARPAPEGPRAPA
In words: Human UII Calcium Mobilization Assay. As to conditions: average value, FLIPR TETRA, read-out: Human UII Ca^+ Mobilization Average IC50. In kind it is cell-based. How it is done: 6D9 human rhabdomyosarcoma cells were seeded into tissue culture treated 384-well black-walled clear bottom plates (3712, Corning Incorporated, Corning, N.Y.) at 8,000 cells/well in 25 μL of culture medium, and maintained in an incubator (5% CO2 at 37° C.) for 22 hrs prior to the calcium mobilization assay. 25 μL of dye solution was added to the wells such that the final liquid volume before agonist/antagonist treatment was 50 μL for all assays. The cell plates were incubated at 37° C. for 45 minutes and the fluorescence intensity was measured on a Fluorometric Imaging Plate Reader (FLIPR^TETRA, Molecular Devices, Sunnyvale, Calif.).
Antagonist and agonist U-II were added at room temperature on the FLIPR^TETRA, and the fluorescence intensity before and after addition was measured over a period of 4 minutes. The dye incubation time and temperature as well as instrument setting was adjusted so the fluorescence intensity could be compared between plates on the same day. EC50 and IC50 were analyzed using GraphPad Prism 4 software (GraphPad Software Inc., San Diego, Calif.).
Materials and reagent Preparation: Human Rhabdomyosarcoma cells (6D9: isolated by dilution subcloning of RMS13 cells, ATCC® Number: CRL-2061, American Type Culture Collection ATCC, Manassas, Va.) was maintained in RPMI-1640 medium (30-2001, ATCC, Manassas, Va.) supplemented with 10% (v/v) Fetal Bovine Serum (SH30071.03, Hyclone, Logan, Utah).
Dye preparation: BD™ Calcium Assay Kit (80500-301, BD Biosciences, Rockville, Md.) was prepared according to the manufacture's instruction in 1× Hanks' balanced salt solution (HBSS, 21-023-CV, Mediatech, Inc. Herndon, Va.) containing 20 mM HEPES buffer (25-060-CI, Mediatech, Inc. Herndon, Va.). Final dye loading conditions included 1.25 mM probenecid (P36400, Invitrogen, Carlsbad, Calif.) and 0.01% FBS.
Urantide (PUT-3639-PI, Peptide International, Louisville, Ky.) was prepared in water at 5 mM. For assays, U-II agonist, U-II antagonist and urantide were diluted with HBSS/HEPES containing 0.01% FBS.
Test compounds were dissolved in DMSO at 10 mM concentration. The serial dilutions were carried out in HBSS/HEPES. The highest final DMSO concentration was at 0.1%.

Test [3] concerns the target T3, endogenous human UII receptor (Homo sapiens, UniProt Q9UKP6).
T3 sequence (Q9UKP6 1-389): T2 sequence (Q9UKP6 1-389)
Kind of test: Human Radioligand Binding Assay ((^125I)-U-II binding to human skeletal muscle myoblasts).

Usually IC50 stands for the concentration needed to halve the response being measured. What is called Ki is the equilibrium dissociation constant of an inhibitor or competing ligand from its target. Low values mean a stronger hold on the target, high ones a looser hold on the target. Take `COc1ccc(C(CCCNS(=O)(=O)c2cc(C)oc2C(F)(F)F)N2C(=O)c3cccc(N4CCN([C@H](C)c5ccccc5)CC4)c3C2=O)cc1OC` (stereo partly drawn) [Cpd 89, 5-methyl-2-trifluoromethyl-furan-3-sulfonic acid (4-(3,4-dimethoxy-phenyl)-4-{1,3-dioxo-4-[4-(1R)-(1-phenyl-ethyl)-piperazin-1-yl]-1,3-dihydro-isoindol-2-yl}-butyl)-amide]: the IC50 in test [1] is 540 nM; in test [2] it was above 10000 nM. For the same compound, the Ki in test [3] turned out to be 890 nM.
Taken in the same sequence, the figures for `COC(=O)c1ccc(S(=O)(=O)NCCCC(c2ccc(OC)c(OC)c2)N2C(=O)c3cccc(N4CCN([C@H](C)c5ccccc5)CC4)c3C2=O)o1` (stereo partly drawn) [Cpd 90, 5-(4-(3,4-dimethoxy-phenyl)-4-{1,3-dioxo-4-[4-(1R)-(1-phenyl-ethyl)-piperazin-1-yl]-1,3-dihydro-isoindol-2-yl}-butylsulfamoyl)-furan-2-carboxylic acid methyl ester] were 130 nM, 560 nM and 320 nM.
Taken in the same sequence, the figures for `COc1ccc(C(CCCNS(=O)(=O)c2c(C)nn(C)c2C)N2C(=O)c3cccc(N4CCN([C@H](C)c5ccccc5)CC4)c3C2=O)cc1OC` (stereo partly drawn) [Cpd 91, 1,3,5-trimethyl-1H-pyrazole-4-sulfonic acid (4-(3,4-dimethoxy-phenyl)-4-{1,3-dioxo-4-[4-(1R)-(1-phenyl-ethyl)-piperazin-1-yl]-1,3-dihydro-isoindol-2-yl}-butyl)-amide] were 15 nM, 310 nM and 150 nM.
As to `COc1ccc(C(CCCNS(=O)(=O)c2c(Cl)nc3sccn23)N2C(=O)c3cccc(N4CCN([C@H](C)c5ccccc5)CC4)c3C2=O)cc1OC` (stereo partly drawn) [Cpd 93, 6-chloro-imidazo[2,1-b]thiazole-5-sulfonic acid (4-(3,4-dimethoxy-phenyl)-4-{1,3-dioxo-4-[4-(1R)-(1-phenyl-ethyl)-piperazin-1-yl]-1,3-dihydro-isoindol-2-yl}-butyl)-amide], the IC50 in test [1] is 180 nM; in test [2], above 3000 nM. Besides, in test [3], the inhibitory constant (Ki) worked out at 460 nM.
On to `COC(=O)c1sccc1S(=O)(=O)NCCCC(c1ccc(OC)c(OC)c1)N1C(=O)c2cccc(N3CCN([C@H](C)c4ccccc4)CC3)c2C1=O` (stereo partly drawn) [Cpd 94, 3-(4-(3,4-dimethoxy-phenyl)-4-{1,3-dioxo-4-[4-(1R)-(1-phenyl-ethyl)-piperazin-1-yl]-1,3-dihydro-isoindol-2-yl}-butylsulfamoyl)-thiophene-2-carboxylic acid methyl ester], for which the IC50 was 65 nM in test [1] and 430 nM in test [2]. For the same compound, in test [3], the Ki stood at 42 nM.
Taken in the same sequence, the figures for `COc1ccc(C(CCCNS(=O)(=O)c2ccc(-c3ccon3)s2)N2C(=O)c3cccc(N4CCN([C@H](C)c5ccccc5)CC4)c3C2=O)cc1OC` (stereo partly drawn) [Cpd 95, 5-isoxazol-3-yl-thiophene-2-sulfonic acid (4-(3,4-dimethoxy-phenyl)-4-{1,3-dioxo-4-[4-(1R)-(1-phenyl-ethyl)-piperazin-1-yl]-1,3-dihydro-isoindol-2-yl}-butyl)-amide] were 89 nM, 200 nM and 110 nM.
Regarding `COc1ccc(C(CCCNS(=O)(=O)c2ccccc2)N2C(=O)c3cccc(N4CCN([C@H](C)c5ccccc5)CC4)c3C2=O)cc1OC` (stereo partly drawn) [Cpd 96, N-(4-(3,4-dimethoxy-phenyl)-4-{1,3-dioxo-4-[4-(1R)-(1-phenyl-ethyl)-piperazin-1-yl]-1,3-dihydro-isoindol-2-yl}-butyl)-benzenesulfonamide], the IC50 in test [1] amounted to 97 nM; in test [2], 760 nM. This compound also had a Ki in test [3] of 97 nM.
With `COc1ccc(C(CCCNS(=O)(=O)c2sc(NC(C)=O)nc2C)N2C(=O)c3cccc(N4CCN([C@H](C)c5ccccc5)CC4)c3C2=O)cc1OC` (stereo partly drawn) [Cpd 97, N-[5-(4-(3,4-dimethoxy-phenyl)-4-{1,3-dioxo-4-[4-(1R)-(1-phenyl-ethyl)-piperazin-1-yl]-1,3-dihydro-isoindol-2-yl}-butylsulfamoyl)-4-methyl-thiazol-2-yl]-acetamide], the IC50 was 63 nM in test [1] and 700 nM in test [2]. The compound also gave a Ki in test [3] of 180 nM.
As to `COc1ccc(C(CCCNS(=O)(=O)c2cn(C)cn2)N2C(=O)c3cccc(N4CCN([C@H](C)c5ccccc5)CC4)c3C2=O)cc1OC` (stereo partly drawn) [Cpd 98, 1-methyl-1H-imidazole-4-sulfonic acid (4-(3,4-dimethoxy-phenyl)-4-{1,3-dioxo-4-[4-(1R)-(1-phenyl-ethyl)-piperazin-1-yl]-1,3-dihydro-isoindol-2-yl}-butyl)-amide], the IC50 in test [1] is 18 nM; in test [2], 350 nM. Further, the Ki in test [3] was found to be 42 nM.
On to `COc1ccc(C(CCCNS(=O)(=O)c2cc(C)oc2C)N2C(=O)c3cccc(N4CCN([C@H](C)c5ccccc5)CC4)c3C2=O)cc1OC` (stereo partly drawn) [Cpd 99, 2,5-dimethyl-furan-3-sulfonic acid (4-(3,4-dimethoxy-phenyl)-4-{1,3-dioxo-4-[4-(1R)-(1-phenyl-ethyl)-piperazin-1-yl]-1,3-dihydro-isoindol-2-yl}-butyl)-amide], for which the IC50 in test [1] was 170 nM; in test [2], 2700 nM. The same compound returned a Ki in test [3] of 620 nM.
With `COc1ccc(C(CCCNS(=O)(=O)c2c(C)nn(C)c2Cl)N2C(=O)c3cccc(N4CCN([C@H](C)c5ccccc5)CC4)c3C2=O)cc1OC` (stereo partly drawn) [Cpd 101, 5-chloro-1,3-dimethyl-1H-pyrazole-4-sulfonic acid (4-(3,4-dimethoxy-phenyl)-4-{1,3-dioxo-4-[4-(1R)-(1-phenyl-ethyl)-piperazin-1-yl]-1,3-dihydro-isoindol-2-yl}-butyl)-amide], the IC50 in test [1] amounted to 30 nM; in test [2], 300 nM. For the same compound, the affinity in test [3] corresponds to a Ki of 120 nM.
For `COc1ccc(C(CNC(=O)Cc2ccncc2)N2C(=O)c3cccc(N4CCN([C@H](C)c5ccccc5)CC4)c3C2=O)cc1OC` (stereo partly drawn) [Cpd 102, N-(2-(3,4-dimethoxy-phenyl)-2-{1,3-dioxo-4-[4-(1R)-(1-phenyl-ethyl)-piperazin-1-yl]-1,3-dihydro-isoindol-2-yl}-ethyl)-2-pyridin-4-yl-acetamide], the IC50 was determined as 49 nM in test [1] and 520 nM in test [2]. In test [3], this compound displayed a Ki of 99 nM.
In the same order, the values of `COc1ccc(C(CCCNC(=O)c2cccs2)N2C(=O)c3cccc(N4CCN([C@H](C)c5ccccc5)CC4)c3C2=O)cc1OC` (stereo partly drawn) [Cpd 104, thiophene-2-carboxylic acid (4-(3,4-dimethoxy-phenyl)-4-{1,3-dioxo-4-[4-(1R)-(1-phenyl-ethyl)-piperazin-1-yl]-1,3-dihydro-isoindol-2-yl}-butyl)-amide] are 53 nM, 170 nM and 120 nM.
